Legend:
ZAK = target: T1, ZAK (Homo sapiens, UniProt Q9NYL2); assay: KINOMEscan at 1 μM, ZAK; assay type: binding; conditions: 1000 nM, read-out: Percent Control
T1 construct: purchased Eurofins DiscoverX KINOMEscan
Excerpt: (§1) Supplement cells-12-00287-s001.zip/File S2. KinomeScan data for the CAMKK2 probe and negative control.xlsx, sheet "SGC-CAMKK2-1N" | column: Percent Control

DCAMKL3 = target: T2, DCAMKL3 (Homo sapiens, UniProt Q9C098); assay: KINOMEscan at 1 μM, DCAMKL3; assay type: binding; conditions: 1000 nM, read-out: Percent Control
T2 construct: purchased Eurofins DiscoverX KINOMEscan
Excerpt: as §1

TAOK3 = target: T3, TAOK3 (Homo sapiens, UniProt Q9H2K8); assay: KINOMEscan at 1 μM, TAOK3; assay type: binding; conditions: 1000 nM, read-out: Percent Control
T3 construct: purchased Eurofins DiscoverX KINOMEscan
Excerpt: as §1

PIK3CB = target: T4, PIK3CB (Homo sapiens, UniProt P42338); assay: KINOMEscan at 1 μM, PIK3CB; assay type: binding; conditions: 1000 nM, read-out: Percent Control
T4 construct: purchased Eurofins DiscoverX KINOMEscan
Excerpt: as §1

DDR2 = target: T5, DDR2 (Homo sapiens, UniProt Q16832); assay: KINOMEscan at 1 μM, DDR2; assay type: binding; conditions: 1000 nM, read-out: Percent Control
T5 construct: purchased Eurofins DiscoverX KINOMEscan
Excerpt: as §1

FGFR4 = target: T6, FGFR4 (Homo sapiens, UniProt P22455); assay: KINOMEscan binding assay at 1 μM, FGFR4; conditions: Compound Concentration 1000 nM; read-out: Percent Control
T6 construct: purchased Eurofins DiscoverX KINOMEscan
Excerpt: as §1

EPHA8 = target: T7, EPHA8 (Homo sapiens, UniProt P29322); assay: KINOMEscan binding assay at 1 μM, EPHA8; conditions: Compound Concentration 1000 nM; read-out: Percent Control
T7 construct: purchased Eurofins DiscoverX KINOMEscan
Excerpt: as §1

FAK = target: T8, FAK (Homo sapiens, UniProt Q05397); assay: KINOMEscan at 1 μM, FAK; assay type: binding; conditions: 1000 nM, read-out: Percent Control
T8 construct: purchased Eurofins DiscoverX KINOMEscan
Excerpt: as §1

PIK3CA(E545A) = target: T9, PIK3CA(E545A) (Homo sapiens, UniProt P42336, E545A); assay: KINOMEscan at 1 μM, PIK3CA(E545A); assay type: binding; conditions: 1000 nM, read-out: Percent Control
T9 construct: purchased Eurofins DiscoverX KINOMEscan
Excerpt: as §1

PRKX = target: T10, PRKX (Homo sapiens, UniProt P51817); assay: KINOMEscan at 1 μM, PRKX; assay type: binding; conditions: 1000 nM, read-out: Percent Control
T10 construct: purchased Eurofins DiscoverX KINOMEscan
Excerpt: as §1

CHEK1 = target: T11, CHEK1 (Homo sapiens, UniProt O14757); assay: KINOMEscan at 1 μM, CHEK1; assay type: binding; conditions: 1000 nM, read-out: Percent Control
T11 construct: purchased Eurofins DiscoverX KINOMEscan
Excerpt: as §1

CSNK1D = target: T12, CSNK1D (Homo sapiens, UniProt P48730); assay: KINOMEscan at 1 μM, CSNK1D; assay type: binding; conditions: 1000 nM, read-out: Percent Control
T12 construct: purchased Eurofins DiscoverX KINOMEscan
Excerpt: as §1

MEK3 = target: T13, MEK3 (Homo sapiens, UniProt P46734); assay: KINOMEscan at 1 μM, MEK3; assay type: binding; conditions: 1000 nM, read-out: Percent Control
T13 construct: purchased Eurofins DiscoverX KINOMEscan
T13 sequence (P46734 whole entry): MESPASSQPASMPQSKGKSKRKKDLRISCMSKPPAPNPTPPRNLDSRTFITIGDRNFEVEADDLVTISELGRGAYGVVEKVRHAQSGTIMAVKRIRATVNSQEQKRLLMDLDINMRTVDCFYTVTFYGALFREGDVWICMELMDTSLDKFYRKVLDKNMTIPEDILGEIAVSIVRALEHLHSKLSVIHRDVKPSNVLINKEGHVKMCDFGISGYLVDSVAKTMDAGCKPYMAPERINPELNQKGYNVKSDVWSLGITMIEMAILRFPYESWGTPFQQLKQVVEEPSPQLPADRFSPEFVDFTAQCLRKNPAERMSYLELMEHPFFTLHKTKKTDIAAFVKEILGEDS
Excerpt: as §1

AURKC = target: T14, AURKC (Homo sapiens, UniProt Q9UQB9); assay: KINOMEscan 1 μM, AURKC; assay type: binding; conditions: 1000 nM; Entrez AURKC; read-out: Percent Control
T14 construct: purchased Eurofins DiscoverX KINOMEscan
Excerpt: (§2) Supplement cells-12-00287-s001.zip/File S2. KinomeScan data for the CAMKK2 probe and negative control.xlsx, sheet "SGC-CAMKK2-1" | column: Percent Control

ASK1 = target: T15, ASK1 (Homo sapiens, UniProt Q99683); assay: KINOMEscan 1 μM, ASK1; assay type: binding; conditions: 1000 nM; Entrez MAP3K5; read-out: Percent Control
T15 construct: purchased Eurofins DiscoverX KINOMEscan
Excerpt: as §2

ROCK1 = target: T16, ROCK1 (Homo sapiens, UniProt Q13464); assay: DiscoverX KINOMEscan binding assay at 1 μM, ROCK1; conditions: Compound Concentration 1000 nM, read-out: Percent Control
T16 construct: purchased Eurofins DiscoverX KINOMEscan
Excerpt: as §2

EPHA5 = target: T17, EPHA5 (Homo sapiens, UniProt P54756); assay: KINOMEscan 1 μM, EPHA5; assay type: binding; conditions: 1000 nM; Entrez EPHA5; read-out: Percent Control
T17 construct: purchased Eurofins DiscoverX KINOMEscan
Excerpt: as §2

ZAP70 = target: T18, ZAP70 (Homo sapiens, UniProt P43403); assay: DiscoverX KINOMEscan binding assay at 1 μM, ZAP70; conditions: Compound Concentration 1000 nM, read-out: Percent Control
T18 construct: purchased Eurofins DiscoverX KINOMEscan
T18 sequence (P43403 whole entry): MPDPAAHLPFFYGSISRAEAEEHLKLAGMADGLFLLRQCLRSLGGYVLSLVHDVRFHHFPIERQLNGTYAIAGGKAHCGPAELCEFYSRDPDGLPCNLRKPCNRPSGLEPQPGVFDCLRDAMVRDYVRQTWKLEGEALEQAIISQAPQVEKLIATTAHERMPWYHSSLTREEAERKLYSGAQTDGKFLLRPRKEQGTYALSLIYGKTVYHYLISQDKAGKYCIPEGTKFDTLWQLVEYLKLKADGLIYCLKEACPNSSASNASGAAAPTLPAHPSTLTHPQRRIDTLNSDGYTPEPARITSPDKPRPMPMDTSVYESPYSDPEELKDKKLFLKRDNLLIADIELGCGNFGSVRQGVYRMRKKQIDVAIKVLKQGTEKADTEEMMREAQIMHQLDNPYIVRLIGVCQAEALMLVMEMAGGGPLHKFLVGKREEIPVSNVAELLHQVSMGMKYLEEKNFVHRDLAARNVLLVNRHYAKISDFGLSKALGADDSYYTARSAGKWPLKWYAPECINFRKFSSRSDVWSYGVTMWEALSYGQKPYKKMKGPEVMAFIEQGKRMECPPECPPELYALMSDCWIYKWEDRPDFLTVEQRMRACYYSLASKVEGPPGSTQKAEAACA
Excerpt: as §2

CDKL1 = target: T19, CDKL1 (Homo sapiens, UniProt Q00532); assay: KINOMEscan 1 μM, CDKL1; assay type: binding; conditions: 1000 nM; Entrez CDKL1; read-out: Percent Control
T19 construct: purchased Eurofins DiscoverX KINOMEscan
Excerpt: as §2

ACVR1B = target: T20, ACVR1B (Homo sapiens, UniProt P36896); assay: KINOMEscan 1 μM, ACVR1B; assay type: binding; conditions: 1000 nM; Entrez ACVR1B; read-out: Percent Control
T20 construct: purchased Eurofins DiscoverX KINOMEscan
Excerpt: as §2

LZK = target: T21, LZK (Homo sapiens, UniProt O43283); assay: KINOMEscan 1 μM, LZK; assay type: binding; conditions: 1000 nM; Entrez MAP3K13; read-out: Percent Control
T21 construct: purchased Eurofins DiscoverX KINOMEscan
T21 sequence (O43283 whole entry): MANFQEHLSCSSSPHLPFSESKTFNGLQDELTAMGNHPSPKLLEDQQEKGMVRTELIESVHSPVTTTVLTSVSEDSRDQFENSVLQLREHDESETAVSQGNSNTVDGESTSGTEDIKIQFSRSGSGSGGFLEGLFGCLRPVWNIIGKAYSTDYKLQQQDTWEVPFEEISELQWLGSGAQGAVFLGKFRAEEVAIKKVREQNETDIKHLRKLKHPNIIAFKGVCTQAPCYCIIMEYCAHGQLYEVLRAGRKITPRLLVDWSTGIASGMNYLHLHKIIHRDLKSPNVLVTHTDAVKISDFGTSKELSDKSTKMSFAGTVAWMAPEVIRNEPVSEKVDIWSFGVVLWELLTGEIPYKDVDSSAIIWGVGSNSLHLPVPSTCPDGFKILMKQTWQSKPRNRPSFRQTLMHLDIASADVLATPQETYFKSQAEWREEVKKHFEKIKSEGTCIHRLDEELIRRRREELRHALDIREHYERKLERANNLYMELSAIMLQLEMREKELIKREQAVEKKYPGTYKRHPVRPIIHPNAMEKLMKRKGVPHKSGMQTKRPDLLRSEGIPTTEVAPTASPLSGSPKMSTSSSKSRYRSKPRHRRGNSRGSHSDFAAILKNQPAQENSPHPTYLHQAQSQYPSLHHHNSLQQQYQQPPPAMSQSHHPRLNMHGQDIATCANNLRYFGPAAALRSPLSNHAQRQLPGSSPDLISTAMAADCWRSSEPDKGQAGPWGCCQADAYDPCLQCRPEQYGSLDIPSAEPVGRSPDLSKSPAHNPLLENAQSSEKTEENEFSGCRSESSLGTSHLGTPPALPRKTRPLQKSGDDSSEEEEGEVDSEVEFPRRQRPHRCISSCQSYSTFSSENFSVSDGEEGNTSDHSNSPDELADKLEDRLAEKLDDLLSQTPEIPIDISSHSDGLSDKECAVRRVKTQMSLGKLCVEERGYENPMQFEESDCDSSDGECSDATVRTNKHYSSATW
Excerpt: as §2

ERK5 = target: T22, ERK5 (Homo sapiens, UniProt Q13164); assay: KINOMEscan 1 μM, ERK5; assay type: binding; conditions: 1000 nM; Entrez MAPK7; read-out: Percent Control
T22 construct: purchased Eurofins DiscoverX KINOMEscan
Excerpt: as §2

FLT3(D835H) = target: T23, FLT3(D835H) (Homo sapiens, UniProt P36888, D835H); assay: KINOMEscan 1 μM, FLT3(D835H); assay type: binding; conditions: 1000 nM; Entrez FLT3; read-out: Percent Control
T23 construct: purchased Eurofins DiscoverX KINOMEscan
Excerpt: as §2

OSR1 = target: T24, OSR1 (Homo sapiens, UniProt O95747); assay: KINOMEscan 1 μM, OSR1; assay type: binding; conditions: 1000 nM; Entrez OXSR1; read-out: Percent Control
T24 construct: purchased Eurofins DiscoverX KINOMEscan
Excerpt: as §2

EPHA4 = target: T25, EPHA4 (Homo sapiens, UniProt P54764); assay: KINOMEscan 1 μM, EPHA4; assay type: binding; conditions: 1000 nM; Entrez EPHA4; read-out: Percent Control
T25 construct: purchased Eurofins DiscoverX KINOMEscan
T25 sequence (P54764 20-986): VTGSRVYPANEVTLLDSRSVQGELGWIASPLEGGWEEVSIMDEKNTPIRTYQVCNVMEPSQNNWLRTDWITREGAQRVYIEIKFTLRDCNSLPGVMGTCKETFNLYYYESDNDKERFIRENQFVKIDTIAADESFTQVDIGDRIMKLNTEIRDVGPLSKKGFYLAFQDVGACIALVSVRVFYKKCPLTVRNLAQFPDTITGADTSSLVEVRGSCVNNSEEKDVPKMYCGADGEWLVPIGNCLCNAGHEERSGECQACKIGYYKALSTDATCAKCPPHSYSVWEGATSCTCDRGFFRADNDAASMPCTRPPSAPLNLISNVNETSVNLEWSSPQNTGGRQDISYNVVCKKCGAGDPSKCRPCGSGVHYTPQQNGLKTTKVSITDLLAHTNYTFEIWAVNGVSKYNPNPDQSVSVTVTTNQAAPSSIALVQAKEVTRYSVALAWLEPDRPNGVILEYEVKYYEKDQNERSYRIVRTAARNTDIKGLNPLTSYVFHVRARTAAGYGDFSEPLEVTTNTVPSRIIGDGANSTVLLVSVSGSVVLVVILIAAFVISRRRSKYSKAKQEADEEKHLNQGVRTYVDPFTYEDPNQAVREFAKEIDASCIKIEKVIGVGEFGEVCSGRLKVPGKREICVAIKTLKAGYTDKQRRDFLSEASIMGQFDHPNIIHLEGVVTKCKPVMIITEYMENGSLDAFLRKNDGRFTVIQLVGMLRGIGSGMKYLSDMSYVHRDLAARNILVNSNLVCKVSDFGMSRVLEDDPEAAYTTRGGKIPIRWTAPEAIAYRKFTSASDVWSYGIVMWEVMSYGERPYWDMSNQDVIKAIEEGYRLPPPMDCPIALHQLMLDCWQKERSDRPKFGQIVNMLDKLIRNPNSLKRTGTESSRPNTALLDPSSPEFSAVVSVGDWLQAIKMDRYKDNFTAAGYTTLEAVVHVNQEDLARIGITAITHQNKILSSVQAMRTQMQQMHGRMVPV
Excerpt: as §2

FLT3(N841I) = target: T26, FLT3(N841I) (Homo sapiens, UniProt P36888, N841I); assay: KINOMEscan 1 μM, FLT3(N841I); assay type: binding; conditions: 1000 nM; Entrez FLT3; read-out: Percent Control
T26 construct: purchased Eurofins DiscoverX KINOMEscan
Excerpt: as §2

CSNK1G2 = target: T27, CSNK1G2 (Homo sapiens, UniProt P78368); assay: KINOMEscan 1 μM, CSNK1G2; assay type: binding; conditions: 1000 nM; Entrez CSNK1G2; read-out: Percent Control
T27 construct: purchased Eurofins DiscoverX KINOMEscan
Excerpt: as §2

[1] = target: T28, ABL1(E255K)-phosphorylated (Homo sapiens, UniProt P00519, E255K); assay: KINOMEscan 1 μM, ABL1(E255K)-phosphorylated; assay type: binding; conditions: 1000 nM; Entrez ABL1; read-out: Percent Control
T28 construct: purchased Eurofins DiscoverX KINOMEscan
T28 sequence (P00519 whole entry E255K): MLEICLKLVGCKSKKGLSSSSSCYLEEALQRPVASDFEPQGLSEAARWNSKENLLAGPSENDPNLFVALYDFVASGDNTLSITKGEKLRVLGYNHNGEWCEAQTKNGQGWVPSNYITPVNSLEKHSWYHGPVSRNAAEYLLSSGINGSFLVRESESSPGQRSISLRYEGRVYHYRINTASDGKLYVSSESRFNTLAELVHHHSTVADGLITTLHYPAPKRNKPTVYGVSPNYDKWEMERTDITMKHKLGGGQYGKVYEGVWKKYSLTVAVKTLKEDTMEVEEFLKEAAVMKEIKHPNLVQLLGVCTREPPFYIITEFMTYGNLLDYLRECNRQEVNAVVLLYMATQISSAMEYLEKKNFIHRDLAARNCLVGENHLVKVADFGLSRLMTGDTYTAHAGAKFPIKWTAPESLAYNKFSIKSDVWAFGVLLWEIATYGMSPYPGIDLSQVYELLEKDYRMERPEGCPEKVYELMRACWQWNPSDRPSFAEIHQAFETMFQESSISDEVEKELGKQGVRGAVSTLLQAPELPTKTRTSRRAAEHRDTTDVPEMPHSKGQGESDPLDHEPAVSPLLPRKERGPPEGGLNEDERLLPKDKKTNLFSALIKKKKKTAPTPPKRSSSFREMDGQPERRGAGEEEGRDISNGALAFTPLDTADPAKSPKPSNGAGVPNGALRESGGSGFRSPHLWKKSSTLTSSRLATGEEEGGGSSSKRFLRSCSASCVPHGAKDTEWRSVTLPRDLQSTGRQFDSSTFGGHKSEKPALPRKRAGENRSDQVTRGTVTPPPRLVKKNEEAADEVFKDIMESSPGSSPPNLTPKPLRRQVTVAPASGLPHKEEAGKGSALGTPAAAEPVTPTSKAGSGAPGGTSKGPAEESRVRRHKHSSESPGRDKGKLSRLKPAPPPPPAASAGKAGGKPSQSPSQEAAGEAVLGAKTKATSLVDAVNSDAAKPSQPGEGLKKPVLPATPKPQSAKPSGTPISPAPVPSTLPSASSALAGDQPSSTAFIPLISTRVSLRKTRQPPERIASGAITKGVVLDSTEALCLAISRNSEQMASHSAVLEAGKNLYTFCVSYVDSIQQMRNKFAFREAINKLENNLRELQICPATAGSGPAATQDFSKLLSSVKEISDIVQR
Excerpt: as §2

STK39 = target: T29, STK39 (Homo sapiens, UniProt Q9UEW8); assay: KINOMEscan 1 μM, STK39; assay type: binding; conditions: 1000 nM; Entrez STK39; read-out: Percent Control
T29 construct: purchased Eurofins DiscoverX KINOMEscan
Excerpt: as §2

KIT(V559D) = target: T30, KIT(V559D) (Homo sapiens, UniProt P10721, V559D); assay: KINOMEscan 1 μM, KIT(V559D); assay type: binding; conditions: 1000 nM; Entrez KIT; read-out: Percent Control
T30 construct: purchased Eurofins DiscoverX KINOMEscan
Excerpt: as §2

ABL2 = target: T31, ABL2 (Homo sapiens, UniProt P42684); assay: KINOMEscan 1 μM, ABL2; assay type: binding; conditions: 1000 nM; Entrez ABL2; read-out: Percent Control
T31 construct: purchased Eurofins DiscoverX KINOMEscan
Excerpt: as §2

QSK = target: T32, QSK (Homo sapiens, UniProt Q9Y2K2); assay: DiscoverX KINOMEscan binding assay at 1 μM, QSK; conditions: QSK (KIAA0999); Compound Concentration 1000 nM; read-out: Percent Control
T32 construct: purchased Eurofins DiscoverX KINOMEscan
Excerpt: as §2

PRKCQ = target: T33, PRKCQ (Homo sapiens, UniProt Q04759); assay: DiscoverX KINOMEscan binding assay at 1 μM, PRKCQ; conditions: Compound Concentration 1000 nM, read-out: Percent Control
T33 construct: purchased Eurofins DiscoverX KINOMEscan
Excerpt: as §2

T1 sequence (Q9NYL2 whole entry): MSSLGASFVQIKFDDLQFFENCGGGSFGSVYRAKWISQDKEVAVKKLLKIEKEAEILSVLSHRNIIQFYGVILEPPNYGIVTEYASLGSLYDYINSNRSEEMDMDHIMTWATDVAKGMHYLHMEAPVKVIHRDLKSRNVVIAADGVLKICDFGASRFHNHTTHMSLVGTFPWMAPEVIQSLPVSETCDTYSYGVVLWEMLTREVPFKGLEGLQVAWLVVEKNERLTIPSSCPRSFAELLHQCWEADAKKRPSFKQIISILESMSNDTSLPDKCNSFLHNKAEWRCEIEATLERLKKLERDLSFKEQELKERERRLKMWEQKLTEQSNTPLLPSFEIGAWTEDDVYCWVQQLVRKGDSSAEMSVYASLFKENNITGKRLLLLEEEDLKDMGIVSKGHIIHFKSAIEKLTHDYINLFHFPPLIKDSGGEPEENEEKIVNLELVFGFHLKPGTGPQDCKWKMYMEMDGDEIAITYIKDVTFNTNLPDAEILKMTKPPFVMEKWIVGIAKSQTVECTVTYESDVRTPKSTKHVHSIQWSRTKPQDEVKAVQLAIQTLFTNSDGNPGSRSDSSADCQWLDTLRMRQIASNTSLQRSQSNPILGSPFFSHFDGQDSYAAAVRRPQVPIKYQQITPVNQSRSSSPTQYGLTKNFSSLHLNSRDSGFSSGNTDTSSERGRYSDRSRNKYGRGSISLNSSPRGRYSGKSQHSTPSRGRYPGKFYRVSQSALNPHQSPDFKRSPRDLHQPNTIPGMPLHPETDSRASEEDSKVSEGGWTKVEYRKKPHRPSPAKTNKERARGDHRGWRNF

## O=C(O)c1ccc(-c2coc3ncc(-c4ccccc4)cc23)cc1Cl [SGC-CAMKK2-1N (UNC-YL-83)]
ZAK
  remaining binding at 1 µM: 69%
DCAMKL3
  remaining binding at 1 µM: 100%
TAOK3
  remaining binding at 1 µM: 79%
PIK3CB
  remaining binding at 1 µM: 67%
DDR2
  remaining binding at 1 µM: 100%
FGFR4
  remaining binding at 1 µM: 100%
EPHA8
  remaining binding at 1 µM: 100%
FAK
  remaining binding at 1 µM: 96%
PIK3CA(E545A)
  remaining binding at 1 µM: 59%
PRKX
  remaining binding at 1 µM: 76%
CHEK1
  remaining binding at 1 µM: 91%
CSNK1D
  remaining binding at 1 µM: 99%
MEK3
  remaining binding at 1 µM: 89%

## Cc1cccc(-c2cnc3occ(-c4ccc(C(=O)O)c(C5CCCC5)c4)c3c2)c1 [SGC-CAMKK2-1 (YL-36)]
AURKC
  remaining binding at 1 µM: 99%
ASK1
  remaining binding at 1 µM: 100%
ROCK1
  remaining binding at 1 µM: 100%
EPHA5
  remaining binding at 1 µM: 100%
ZAP70
  remaining binding at 1 µM: 100%
CDKL1
  remaining binding at 1 µM: 100%
ACVR1B
  remaining binding at 1 µM: 100%
LZK
  remaining binding at 1 µM: 100%
ERK5
  remaining binding at 1 µM: 100%
FLT3(D835H)
  remaining binding at 1 µM: 87%
OSR1
  remaining binding at 1 µM: 84%
EPHA4
  remaining binding at 1 µM: 90%
FLT3(N841I)
  remaining binding at 1 µM: 95%
CSNK1G2
  remaining binding at 1 µM: 88%
[1]
  remaining binding at 1 µM: 98%
STK39
  remaining binding at 1 µM: 64%
KIT(V559D)
  remaining binding at 1 µM: 100%
ABL2
  remaining binding at 1 µM: 92%
QSK
  remaining binding at 1 µM: 100%
PRKCQ
  remaining binding at 1 µM: 100%
